One experiment deals with T1, Aurora kinase A (Homo sapiens, UniProt O14965).
T1 sequence (O14965 whole entry): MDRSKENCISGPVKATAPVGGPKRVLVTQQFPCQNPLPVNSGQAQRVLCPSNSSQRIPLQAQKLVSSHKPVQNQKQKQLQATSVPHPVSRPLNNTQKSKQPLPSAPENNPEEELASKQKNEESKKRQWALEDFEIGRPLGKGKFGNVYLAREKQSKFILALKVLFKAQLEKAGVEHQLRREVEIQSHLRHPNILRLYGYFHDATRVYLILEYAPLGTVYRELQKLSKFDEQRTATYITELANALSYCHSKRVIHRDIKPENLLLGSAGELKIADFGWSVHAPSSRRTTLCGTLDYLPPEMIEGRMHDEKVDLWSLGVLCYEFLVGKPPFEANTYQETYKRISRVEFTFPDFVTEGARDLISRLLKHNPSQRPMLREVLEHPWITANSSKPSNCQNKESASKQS
Put plainly: Binding affinity to Aurora A kinase catalytic domain by competitive binding assay.

In experiment [1] the target is T2, Aurora kinase B (Homo sapiens, UniProt Q96GD4). Put plainly: Binding affinity to Aurora B kinase catalytic domain by competitive binding assay.
T2 sequence (Q96GD4 whole entry, the tested form may be a part): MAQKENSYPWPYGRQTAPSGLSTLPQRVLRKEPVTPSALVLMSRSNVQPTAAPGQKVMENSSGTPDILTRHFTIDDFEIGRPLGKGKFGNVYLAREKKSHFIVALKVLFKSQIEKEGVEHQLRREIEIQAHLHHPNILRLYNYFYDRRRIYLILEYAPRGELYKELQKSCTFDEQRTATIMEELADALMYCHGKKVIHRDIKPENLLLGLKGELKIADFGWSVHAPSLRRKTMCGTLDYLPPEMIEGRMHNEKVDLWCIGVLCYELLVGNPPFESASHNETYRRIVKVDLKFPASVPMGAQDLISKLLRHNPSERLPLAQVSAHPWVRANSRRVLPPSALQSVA
For experiment [2], the target named is T2, Aurora kinase B. Kind of experiment: Inhibition of Aurora B kinase assessed as reduction in histone H3 phosphorylation in human HCT116 cells. The experiment is classed as cell-based, HCT-116.
The subject of the next experiment is HCT-116. Kind of experiment: Antiproliferative activity against human HCT116 cells. In kind it is functional, cell-based.
A further experiment addresses T3, Aurora kinase C (Homo sapiens, UniProt Q9UQB9).
T3 sequence (Q9UQB9 whole entry): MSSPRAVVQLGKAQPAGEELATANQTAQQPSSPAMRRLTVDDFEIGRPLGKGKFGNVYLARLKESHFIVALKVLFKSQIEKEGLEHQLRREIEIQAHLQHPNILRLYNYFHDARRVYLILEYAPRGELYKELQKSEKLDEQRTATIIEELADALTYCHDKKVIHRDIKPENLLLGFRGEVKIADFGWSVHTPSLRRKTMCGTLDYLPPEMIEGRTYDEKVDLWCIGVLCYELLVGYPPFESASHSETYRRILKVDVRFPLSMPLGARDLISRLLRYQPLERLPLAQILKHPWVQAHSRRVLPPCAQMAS
Put plainly: Binding affinity to Aurora C kinase catalytic domain by competitive binding assay.

On to `Cc1cc(Nc2nc(Sc3ccc(NC(=O)CN4C[C@H](O)[C@@H](F)C4)cc3)nn3cccc23)n[nH]1`, for which the Kd on Aurora kinase A stood at 5 nM; at Aurora kinase B [1], 1 nM. Moreover, the IC50 on Aurora kinase B [2] turned out to be 47 nM; with HCT-116, 33 nM.

Turning to `Cc1cc(Nc2nc(Sc3ccc(NC(=O)C4CC4)cc3)nn3cc(NC(=O)CN4CCOCC4)cc23)n[nH]1`, the Kd on Aurora kinase A came to 7 nM; on Aurora kinase B [1], 9 nM; at Aurora kinase C it was 3 nM. Moreover, the IC50 turned out to be 420 nM at Aurora kinase B [2] and 160 nM in the experiment on HCT-116.

Take `Cc1cc(Nc2nc(Sc3ccc(NC(=O)CN4C[C@@H](F)C[C@H]4CO)cc3)nn3cccc23)n[nH]1`: the figures for the Kd on Aurora kinase A and on Aurora kinase B [1] were 8 nM and 4 nM, respectively. Moreover, the IC50 on Aurora kinase B [2] was 28 nM; with HCT-116, 25 nM.

On to `Cc1cc(Nc2nc(Sc3ccc(NC(=O)C4CC4)cc3)nn3cc(NC(=O)CN4CCC[C@@H]4CO)cc23)n[nH]1`, for which the Kd at Aurora kinase A is 10 nM; at Aurora kinase B [1], 16 nM; at Aurora kinase C it was 80 nM. The figures for the IC50 at Aurora kinase B [2] and with HCT-116 were 6300 nM and 536 nM, respectively.

For the compound `Cc1cc(Nc2nc(Sc3ccc(NC(=O)CN4C[C@H](OC5CCCC5)[C@@H](O)C4)cc3)nn3cccc23)n[nH]1`, the Kd at Aurora kinase A was 11 nM; on Aurora kinase B [1] it was 4 nM. Further, the values for the IC50 at Aurora kinase B [2] and with HCT-116 were 23 nM and 6 nM, respectively.

As to `Cc1cc(Nc2nc(Sc3ccc(NC(=O)CN(C)C)cc3)nn3cccc23)n[nH]1`, the Kd was 31 nM at Aurora kinase A, 8 nM on Aurora kinase B [1] and 5 nM on Aurora kinase C. In addition, the IC50 on Aurora kinase B [2] came out at 293 nM; in the experiment with HCT-116, 370 nM.

Turning to `Cc1cc(Nc2nc(Sc3ccc(NC(=O)CN4C[C@H](OC(C)(C)C)C[C@@H]4CO)cc3)nn3cccc23)n[nH]1`, the values for the Kd on Aurora kinase A and on Aurora kinase B [1] were 301 nM and 69 nM, respectively. Also, the IC50 on Aurora kinase B [2] is 2490 nM; with HCT-116 it was 2390 nM.

In the case of `Cc1cc(Nc2nc(Sc3ccc(NC(=O)CN4C[C@H](Oc5ccccc5F)[C@@H](O)C4)cc3)nn3cccc23)n[nH]1`, the Kd came to 10 nM on Aurora kinase A and 9 nM on Aurora kinase B [1]. Also, the IC50 was 28 nM at Aurora kinase B [2] and 4 nM in the experiment on HCT-116.

Take `Cc1cc(Nc2cc(N3CCN(C)CC3)nc(Sc3ccc(NC(=O)C4CC4)cc3)n2)n[nH]1` [TOZASERTIB]: half-maximal inhibition in the experiment on HCT-116 (IC50) required 28 nM.

Take `Cc1cc(Nc2nc(Sc3ccc(NC(=O)CN4C[C@H](N)C[C@H]4CO)cc3)nn3cccc23)n[nH]1`: the Kd on Aurora kinase A is 381 nM; on Aurora kinase B [1], 144 nM. For the same compound, the values for the IC50 on Aurora kinase B [2] and in the experiment on HCT-116 were 15000 nM and 4700 nM, respectively.

For `Cc1cc(Nc2nc(Sc3ccc(NC(=O)C4CC4)cc3)nn3cc(NC(=O)CN4CCCC4)cc23)n[nH]1`, the Kd at Aurora kinase A came to 23 nM; on Aurora kinase B [1], 49 nM; at Aurora kinase C it was 13 nM. The IC50 on Aurora kinase B [2] is 828 nM; in the experiment on HCT-116 it was 536 nM.

`Cc1cc(Nc2nc(Sc3ccc(NC(=O)CN4C[C@H](Oc5ccc(F)cc5F)[C@@H](O)C4)cc3)nn3cccc23)n[nH]1`: the Kd on Aurora kinase A was 13 nM; on Aurora kinase B [1], 17 nM. The IC50 is 58 nM on Aurora kinase B [2] and 5 nM with HCT-116.

For `Cc1cc(Nc2nc(Sc3ccc(NC(=O)CN4C[C@H](OC(C)(C)C(F)(F)F)[C@@H](O)C4)cc3)nn3cccc23)n[nH]1`, the Kd was 6 nM at Aurora kinase A and 4 nM on Aurora kinase B [1]. The results for the IC50 on Aurora kinase B [2] and in the experiment on HCT-116 were 27 nM and 9 nM, respectively.

Regarding `Cc1cc(Nc2nc(Sc3ccc(NC(=O)C4CC4)cc3)nn3cc(NC(=O)CCN4CCCCC4)cc23)n[nH]1`, the Kd at Aurora kinase A was determined as 38 nM; on Aurora kinase B [1] it was 37 nM; at Aurora kinase C it was 10 nM. The IC50 worked out at 850 nM at Aurora kinase B [2] and 101 nM in the experiment on HCT-116.

Regarding `Cc1cc(Nc2nc(Sc3ccc(NC(=O)CN4C[C@H]5C[C@H]5[C@H]4CO)cc3)nn3cccc23)n[nH]1`, the Kd was determined as 17 nM on Aurora kinase A and 15 nM at Aurora kinase B [1]. Also, the figures for the IC50 at Aurora kinase B [2] and with HCT-116 were 179 nM and 203 nM, respectively.

In the case of `Cc1cc(Nc2nc(Sc3ccc(NC(=O)CN4CCOCC4)cc3)nn3cccc23)n[nH]1`, the Kd at Aurora kinase A came out at 85 nM; at Aurora kinase B [1], 41 nM; at Aurora kinase C it was 17 nM. Further, the IC50 at Aurora kinase B [2] amounted to 1830 nM; in the experiment with HCT-116, 1840 nM.

Regarding `Cc1cc(Nc2nc(Sc3ccc(NC(=O)CN4C[C@H](O)C[C@H]4CO)cc3)nn3cccc23)n[nH]1`, the figures for the Kd on Aurora kinase A and at Aurora kinase B [1] were 58 nM and 15 nM, respectively. The IC50 on Aurora kinase B [2] worked out at 637 nM; with HCT-116, 596 nM.

`Cc1cc(Nc2nc(Sc3ccc(NC(=O)CN4C[C@H](Oc5cccc(F)c5)[C@@H](O)C4)cc3)nn3cccc23)n[nH]1`: the Kd was determined as 17 nM on Aurora kinase A and 10 nM on Aurora kinase B [1]. For the same compound, the IC50 amounted to 51 nM at Aurora kinase B [2] and 7 nM with HCT-116.

In the case of `Cc1cc(Nc2nc(Sc3ccc(NC(=O)CN4CC(=NO)[C@@H](OC(C)(C)C)C4)cc3)nn3cccc23)n[nH]1` (mixture of isomers), the Kd was 9 nM on Aurora kinase A and 5 nM at Aurora kinase B [1]. Moreover, the IC50 was 28 nM at Aurora kinase B [2] and 8 nM in the experiment with HCT-116.

Consider `Cc1cc(Nc2nc(Sc3ccc(NC(=O)CN4C[C@H](SC(C)(C)C)C[C@H]4CO)cc3)nn3cccc23)n[nH]1`, for which the Kd at Aurora kinase A turned out to be 111 nM; on Aurora kinase B [1], 39 nM. Further, the values for the IC50 on Aurora kinase B [2] and in the experiment on HCT-116 were 1790 nM and 1610 nM, respectively.

Compound `COCCO[C@H]1CN(CC(=O)Nc2ccc(Sc3nc(Nc4cc(C)[nH]n4)c4cccn4n3)cc2)C[C@@H]1O` showed a dissociation constant Kd at Aurora kinase B [1] of 2 nM. Also, the IC50 on Aurora kinase B [2] is 49 nM; in the experiment on HCT-116, 25 nM.

`Cc1cc(Nc2nc(Sc3ccc(NC(=O)CN4CC(F)(F)C[C@H]4CO)cc3)nn3cccc23)n[nH]1`: the Kd was found to be 8 nM at Aurora kinase A, 5 nM at Aurora kinase B [1] and 2 nM on Aurora kinase C. For the same compound, the figures for the IC50 on Aurora kinase B [2] and in the experiment on HCT-116 were 29 nM and 25 nM, respectively.

As to `Cc1cc(Nc2nc(Sc3ccc(NC(=O)CN4C[C@H](F)C[C@H]4CO)cc3)nn3cccc23)n[nH]1`, the values for the Kd on Aurora kinase A and on Aurora kinase B [1] were 15 nM and 9 nM, respectively. The figures for the half-maximal inhibitory concentration (IC50) at Aurora kinase B [2] and with HCT-116 were 91 nM and 104 nM, respectively.

`Cc1cc(Nc2nc(Sc3ccc(NC(=O)CNC4CCCC4)cc3)nn3cccc23)n[nH]1`: the Kd at Aurora kinase A is 143 nM; on Aurora kinase B [1], 42 nM; on Aurora kinase C it was 14 nM. The results for the IC50 at Aurora kinase B [2] and in the experiment with HCT-116 were 655 nM and 365 nM, respectively.

Consider `Cc1cc(Nc2nc(Sc3ccc(NC(=O)CN4C[C@H](Oc5cc(F)cc(F)c5)[C@@H](O)C4)cc3)nn3cccc23)n[nH]1`, for which the Kd worked out at 26 nM on Aurora kinase A and 21 nM at Aurora kinase B [1]. Further, the IC50 turned out to be 51 nM on Aurora kinase B [2] and 7 nM with HCT-116.

Regarding `CCC(C)(C)O[C@H]1CN(CC(=O)Nc2ccc(Sc3nc(Nc4cc(C)[nH]n4)c4cccn4n3)cc2)C[C@@H]1O`, the dissociation constant (Kd) turned out to be 8 nM at Aurora kinase A and 4 nM at Aurora kinase B [1]. The IC50 on Aurora kinase B [2] turned out to be 28 nM; in the experiment on HCT-116, 9 nM.

As to `Cc1cc(Nc2nc(Sc3ccc(NC(=O)CN4C[C@H](OC(C)C)[C@@H](O)C4)cc3)nn3cccc23)n[nH]1`, the Kd at Aurora kinase A is 8 nM; at Aurora kinase B [1], 4 nM. Also, the IC50 at Aurora kinase B [2] was 23 nM; in the experiment with HCT-116 it was 10 nM.

Take `Cc1cc(Nc2nc(Sc3ccc(NC(=O)CN4C[C@@H](O)[C@@H](Oc5ccc(F)cc5)C4)cc3)nn3cccc23)n[nH]1`: the Kd is 7 nM at Aurora kinase A and 8 nM at Aurora kinase B [1]. For the same compound, the values for the 50% inhibitory concentration (IC50) on Aurora kinase B [2] and in the experiment with HCT-116 were 84 nM and 9 nM, respectively.

For `Cc1cc(Nc2nc(Sc3ccc(NC(=O)CN4C[C@H](OCC5CC5)[C@@H](O)C4)cc3)nn3cccc23)n[nH]1`, the Kd on Aurora kinase A amounted to 7 nM; at Aurora kinase B [1] it was 2 nM. Besides, the IC50 on Aurora kinase B [2] is 23 nM; in the experiment on HCT-116, 10 nM.

Regarding `Cc1cc(Nc2nc(Sc3ccc(NC(=O)CN4C[C@H](Oc5ccc(F)cc5)C[C@H]4CO)cc3)nn3cccc23)n[nH]1`, the values for the Kd on Aurora kinase A and on Aurora kinase B [1] were 53 nM and 21 nM, respectively. Further, the results for the IC50 at Aurora kinase B [2] and in the experiment with HCT-116 were 78 nM and 24 nM, respectively.

For the compound `Cc1cc(Nc2nc(Sc3ccc(NC(=O)CN4CCC[C@H]4CO)cc3)nn3cccc23)n[nH]1`, the values for the Kd on Aurora kinase A, at Aurora kinase B [1] and on Aurora kinase C were 14 nM, 4 nM and 1 nM, respectively. Also, the IC50 at Aurora kinase B [2] is 146 nM; in the experiment with HCT-116, 148 nM.

For the compound `Cc1cc(Nc2nc(Sc3ccc(NC(=O)CNC4CC4)cc3)nn3cccc23)n[nH]1`, the Kd on Aurora kinase A came out at 32 nM; at Aurora kinase B [1], 41 nM; on Aurora kinase C, 6 nM. Further, the half-inhibitory concentration (IC50) on Aurora kinase B [2] was 288 nM; with HCT-116, 364 nM.
